Each structure is given as a SMILES string.

The target in the first assay is Human VPS34 (Homo sapiens (Human), UniProt Q8NEB9). Kind of assay: Human VPS34 enzyme assay (Adapta TR-FRET). Type of assay: biochemical. The settings on record: IC50 range class. A general note: Time-resolved FRET reads energy transfer from a long-lived donor to a nearby acceptor.
Sequence of Human VPS34 (Q8NEB9 whole entry): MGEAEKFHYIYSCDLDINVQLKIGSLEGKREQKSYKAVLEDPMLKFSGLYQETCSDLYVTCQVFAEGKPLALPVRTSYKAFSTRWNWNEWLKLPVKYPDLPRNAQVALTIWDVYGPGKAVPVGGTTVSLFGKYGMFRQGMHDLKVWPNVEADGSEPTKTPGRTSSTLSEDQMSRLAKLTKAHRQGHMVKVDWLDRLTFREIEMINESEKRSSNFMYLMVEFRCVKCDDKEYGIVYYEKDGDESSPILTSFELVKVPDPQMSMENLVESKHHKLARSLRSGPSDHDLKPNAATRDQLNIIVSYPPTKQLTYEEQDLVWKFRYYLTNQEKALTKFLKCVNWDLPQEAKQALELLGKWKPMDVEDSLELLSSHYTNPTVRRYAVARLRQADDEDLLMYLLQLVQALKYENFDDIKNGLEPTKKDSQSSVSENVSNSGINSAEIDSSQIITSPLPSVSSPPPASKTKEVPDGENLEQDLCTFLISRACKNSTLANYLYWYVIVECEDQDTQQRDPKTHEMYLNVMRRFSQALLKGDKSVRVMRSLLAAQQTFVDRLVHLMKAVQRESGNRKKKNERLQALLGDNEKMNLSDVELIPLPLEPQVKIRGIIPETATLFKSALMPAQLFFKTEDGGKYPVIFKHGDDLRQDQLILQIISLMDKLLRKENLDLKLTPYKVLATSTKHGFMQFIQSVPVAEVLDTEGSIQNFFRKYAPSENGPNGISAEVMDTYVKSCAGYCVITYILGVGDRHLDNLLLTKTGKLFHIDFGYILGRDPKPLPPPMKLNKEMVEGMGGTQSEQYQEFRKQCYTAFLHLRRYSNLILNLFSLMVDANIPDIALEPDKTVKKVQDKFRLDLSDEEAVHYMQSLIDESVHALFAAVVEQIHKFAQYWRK
In the case of `Cc1cccc(Nc2cc(-c3cnc(C)c(NS(=O)(=O)c4ccc(F)cc4F)c3)ccn2)n1` [Compound I-276, 2,4-difluoro-N-{6-methyl-2′-[(6-methylpyridin-2-yl)amino]-3,4′-bipyridin-5-yl}benzenesulfonamide], the IC50 was under 0.01 µM.

Still in this assay, the particulars now being: compound concentration 1.11 μM.
In the case of `CC(=O)Nc1cc(-c2cnc(N)c(S(=O)(=O)NCC(C)C)c2)ccn1` [Compound I-73, N-[6-amino-5-(isobutylsulfamoyl)-3,4′-bipyridin-2′-yl]acetamide], the “Percent Inhibition” value is on record as over 99%.

The same assay, now with this note: compound concentration 1.11 μM; read-out: Percent Inhibition.
For `Cc1ncc(-c2ccnc(N)c2)cc1NS(=O)(=O)N(C)C` [Compound I-281, N′-(2′-amino-6-methyl-3,4′-bipyridin-5-yl)-N,N-dimethylsulfuric diamide], the inhibition at 1.11 µM is 40%.
For the compound `CC(=O)Nc1cc(-c2cnc(C)c(S(N)(=O)=O)c2)ccn1` [Compound I-395, N-(6-methyl-5-sulfamoyl-3,4′-bipyridin-2′-yl)acetamide], the inhibition at 1.11 µM was over 99%.
Same read-out and setting: for `CC(=O)Nc1cc(-c2cnc(N)c(C(=O)Nc3ccccc3Cl)c2)ccn1` [Compound I-136, 2′-acetamido-6-amino-N-(2-chlorophenyl)-3,4′-bipyridine-5-carboxamide] the value was over 99%; for `CC(=O)Nc1cc(-c2cnc(C)c(NS(=O)(=O)c3ccc(C(C)(C)C)cc3)c2)ccn1` [Compound I-131, N-(5-{[(4-tert-butylphenyl)sulfonyl]amino}-6-methyl-3,4′-bipyridin-2′-yl)acetamide], over 99%.
With `Cc1ncc(-c2ccnc(Nc3ccccn3)c2)cc1NS(=O)(=O)c1ccc(F)cc1F` [Compound I-297, 2,4-difluoro-N-[6-methyl-2′-(pyridin-2-ylamino)-3,4′-bipyridin-5-yl]benzenesulfonamide], the inhibition at 1.11 µM is over 99%.
Same read-out and setting: for `CC(=O)Nc1cc(-c2cnc(N)c(S(=O)(=O)NCCc3ccccc3)c2)ccn1` [Compound I-148, N-{6-amino-5-[(2-phenylethyl)sulfamoyl]-3,4′-bipyridin-2′-yl}acetamide] the value was over 99%; for `Cc1cccc(Nc2cc(-c3cnc(C)c(NS(=O)(=O)c4ccc(F)cc4F)c3)ccn2)n1` [Compound I-276, 2,4-difluoro-N-{6-methyl-2′-[(6-methylpyridin-2-yl)amino]-3,4′-bipyridin-5-yl}benzenesulfonamide], 96%; for `CC(=O)Nc1cc(-c2cnc(NCC3CC3)c(N)c2)ccn1` [Compound I-53, N-{5-amino-6-[(cyclopropylmethyl)amino]-3,4′-bipyridin-2′-yl}acetamide], 67%.
Same read-out and setting: for `CC(=O)Nc1cc(-c2cnc(C)c(NS(=O)(=O)c3ccc(F)cc3Cl)c2)ccn1` [Compound I-206, N-(5-{[(2-chloro-4-fluorophenyl)sulfonyl]amino}-6-methyl-3,4′-bipyridin-2′-yl)acetamide] the value was over 99%; for `CC(=O)Nc1cc(-c2cnc(Cl)c(NS(=O)(=O)c3ccc(F)cc3F)c2C)ccn1` [Compound I-153, N-(6-chloro-5-{[(2,4-difluorophenyl)sulfonyl]amino}-4-methyl-3,4′-bipyridin-2′-yl)acetamide], over 99%; for `CC(=O)Nc1cc(-c2cnc(N)c(S(=O)(=O)N3CCCCC3)c2)ccn1` [Compound I-156, N-[6-amino-5-(piperidin-1-ylsulfonyl)-3,4′-bipyridin-2′-yl]acetamide], over 99%.
On the same count and under the same terms, the result for `Cc1c(-c2ccnc(Nc3ccnc(C4CC4)n3)c2)cnc(Cl)c1NS(=O)(=O)c1ccc(F)cc1F` [Compound I-296, N-{6-chloro-2′-[(2-cyclopropylpyrimidin-4-yl)amino]-4-methyl-3,4′-bipyridin-5-yl}-2,4-difluorobenzene sulfonamide] reads 90%.
Regarding `CC(=O)Nc1cc(-c2cncc(S(=O)(=O)Nc3ccc(F)cc3F)c2)ccn1` [Compound I-464, N-{5-[(2,4-difluorophenyl)sulfamoyl]-3,4′-bipyridin-2′-yl}acetamide], the inhibition at 1.11 µM is over 99%.
The same measure, in the same setting: the result for `COC(=O)Nc1cc(-c2cnc(N)c(S(=O)(=O)N3CCCC3)c2)ccn1` [Compound I-36, methyl[6-amino-5-(pyrrolidin-1-ylsulfonyl)-3,4′-bipyridin-2′-yl]carbamate] reads over 99%; that for `CC(=O)Nc1cc(-c2cnc(C)c(NS(=O)(=O)CC(F)F)c2)ccn1` [Compound I-412, N-(5-{[(2,2-difluoroethyl)sulfonyl]amino}-6-methyl-3,4′-bipyridin-2′-yl)acetamide], 97%.
The same measure, in the same setting: the result for `CC(=O)Nc1cc(-c2cncc(S(=O)(=O)N3CC(F)(F)C3)c2)ccn1` [Compound I-391, N-{5-[(3,3-difluoroazetidin-1-yl)sulfonyl]-3,4′-bipyridin-2′-yl}acetamide] reads over 99%; that for `CC(=O)Nc1cc(-c2cnc(N(C)C)c(C(=O)N(C)c3ccc(F)cc3F)c2)ccn1` [Compound I-174, 2′-Acetamido-N-(2,4-difluorophenyl)-6-(dimethylamino)-N-methyl-[3,4′-bipyridine]-5-carboxamide], over 99%; that for `CC(=O)Nc1cc(-c2cnc3[nH]ccc3c2)ccn1` [Compound I-140, N-[4-(1H-pyrrolo[2,3-b]pyridin-5-yl)pyridin-2-yl]acetamide], over 99%.
On the same count and under the same terms, the result for `CC(=O)Nc1cc(-c2cnc(C)c(NS(=O)(=O)c3cccc(F)c3F)c2)ccn1` [Compound I-377, N-(5-{[(2,3-difluorophenyl)sulfonyl]amino}-6-methyl-3,4′-bipyridin-2′-yl)acetamide] reads 95%; that for `COc1ncc(-c2ccnc(NC(C)=O)c2)cc1S(=O)(=O)Nc1ccc(Cl)cc1Cl` [Compound I-344, N-{5-[(2,4-dichlorophenyl)sulfamoyl]-6-methoxy-3,4′-bipyridin-2′-yl}acetamide], over 99%; that for `CC(=O)Nc1cc(-c2cnc(Cl)c(NS(=O)(=O)c3ccc(C#N)cc3Cl)c2C)ccn1` [Compound I-362, N-(6-chloro-5-{[(2-chloro-4-cyanophenyl)sulfonyl]amino}-4-methyl-3,4′-bipyridin-2′-yl)acetamide], 95%.
For `CC(=O)Nc1cc(-c2cncc(N)c2)ccn1` [Compound I-139, N-(5-amino-3,4′-bipyridin-2′-yl)acetamide], the inhibition at 1.11 µM turned out to be 61%.
On the same count and under the same terms, the result for `CCOC(=O)Nc1cc(-c2cnc(C)c(NS(=O)(=O)c3ccc(Cl)cc3F)c2)ccn1` [Compound I-456, ethyl (5-{[(4-chloro-2-fluorophenyl)sulfonyl]amino}-6-methyl-3,4′-bipyridin-2′-yl)carbamate] reads over 99%.
Still for that read-out and setting: the result for `CC(=O)Nc1cc(-c2cnc(N)c(C(=O)NC(=N)N)c2)ccn1` [Compound I-409, 2′-acetamido-6-amino-N-carbamimidoyl-3,4′-bipyridine-5-carboxamide] reads 82%; that for `CC(=O)Nc1cc(-c2cnc(C)c(NS(=O)(=O)c3ccc(C(F)(F)F)cc3Cl)c2)ccn1` [Compound I-196, N-[5-({[2-chloro-4-(trifluoromethyl)phenyl]sulfonyl}amino)-6-methyl-3,4′-bipyridin-2′-yl]acetamide], over 99%; that for `CC(=O)Nc1cc(-c2cnc(N(C)C)c(C(=O)NC34CC(C3)C4)c2)ccn1` [Compound I-283, 2′-Acetamido-N-(bicyclo[1.1.1]pent-1-yl)-6-(dimethylamino)-3,4′-bipyridine-5-carboxamide], over 99%.
As for `CC(=O)Nc1cc(-c2cnc(Cl)c(N3CCCS3(=O)=O)c2C)ccn1` [Compound I-425, N-[6-chloro-5-(1,1-dioxidoisothiazolidin-2-yl)-4-methyl-3,4′-bipyridin-2′-yl]acetamide], the inhibition at 1.11 µM was determined as 100%.
Same read-out and setting: the result for `CC(=O)Nc1cc(-c2cnc(F)c(NS(=O)(=O)c3ccc(F)cc3F)c2)ccn1` [Compound I-164, N-(5-{[(2,4-difluorophenyl)sulfonyl]amino}-6-fluoro-3,4′-bipyridin-2′-yl)acetamide] reads over 99%; that for `CC(=O)Nc1cc(-c2cnc(N)c(C(=O)Nc3cccnc3)c2)ccn1` [Compound I-91, 2′-acetamido-6-amino-N-(pyridin-3-yl)-3,4′-bipyridine-5-carboxamide], over 99%; that for `CC(=O)Nc1cc(-c2cnc(C)c(NS(=O)(=O)c3cccc(F)c3Cl)c2)ccn1` [Compound I-322, N-(5-{[(2-chloro-3-fluorophenyl)sulfonyl]amino}-6-methyl-3,4′-bipyridin-2′-yl)acetamide], 96%.
On the same count and under the same terms, for `CCOC(=O)Nc1cc(-c2cnc(C)c(NS(=O)(=O)N(C)C)c2)ccn1` [Compound I-364, ethyl {5-[(dimethylsulfamoyl)amino]-6-methyl-3,4′-bipyridin-2′-yl}carbamate] the value was over 99%.
Regarding `CC(=O)Nc1cc(-c2cnc(N)c(C(=O)N3CCCCC3)c2)ccn1` [Compound I-10, N-[6-amino-5-(piperidin-1-ylcarbonyl)-3,4′-bipyridin-2′-yl]acetamide], the inhibition at 1.11 µM is over 99%.
The same measure, in the same setting: for `CC(=O)Nc1cc(-c2cnc(N)c(N3CCCC3=O)c2)ccn1` [Compound I-337, N-[6-amino-5-(2-oxopyrrolidin-1-yl)-3,4′-bipyridin-2′-yl]acetamide] the value was 52%; for `CC(=O)Nc1cc(-c2cnc(C)c(NS(=O)(=O)c3ccccc3C)c2)ccn1` [Compound I-211, N-(6-methyl-5-{[(2-methylphenyl)sulfonyl]amino}-3,4′-bipyridin-2′-yl)acetamide], over 99%.
On the same count and under the same terms, for `COc1nccc(Nc2cc(-c3cncc(C(=O)N(C)C45CC(C4)C5)c3)ccn2)n1` [Compound I-245, N-(bicyclo[1.1.1]pent-1-yl)-2′-[(2-methoxypyrimidin-4-yl)amino]-N-methyl-3,4′-bipyridine-5-carboxamide] the value was over 99%; for `Cc1nccc(Nc2cc(-c3cnc(C)c(NC(=O)Nc4ccccc4)c3)ccn2)n1` [Compound I-439, 1-{6-methyl-2′-[(2-methylpyrimidin-4-yl)amino]-3,4′-bipyridin-5-yl}-3-phenylurea], 69%.

Staying with this assay, now noted: read-out: Percent Inhibition.
With `CC(=O)Nc1cc(-c2cnc(N)c(S(=O)(=O)CC3CC3)c2)ccn1` [Compound I-208], the inhibition at 1.11 µM is over 99%.

One may read the IC50 as the concentration needed to halve the response being measured. High values mean a need for much substance, low ones inhibition by little substance. Broadly, the inhibition is the percentage by which the read-out fell short of the control.

The values above are taken from patent publication US9802960B2 (MILLENNIUM PHARMACEUTICALS, INC., priority 2014, dated 2017).
